Patent publication US20260256728A1, “TREATMENT FOR ASYMPTOMATIC STARGARDT DISEASE PATIENTS” (priority 2024, published 2026)

Columns and labels:
[1] = test system: asymptomatic Stargardt disease patients; test: TEASE-3 photoreceptor loss (ellipsoid zone band loss) by optical coherence tomography; format: in vivo, human
Description: FIG. 5 is a graph showing retinal photoreceptor loss over time in three asymptomatic Stargardt disease patients taking gildeuretinol acetate 14 mg daily. Lines are piecewise linear regressions with a knot time of 6 months and show the mean area of retinal photoreceptor loss of both eyes. Each symbol represents the area of photoreceptor loss for one eye. To measure photoreceptor loss, the ellipsoid zone layer was evaluated on b-scans acquired on Heidelberg engineering optical coherence tomography (Heidelberg, Germany).
The tolerability and effects of ALK-001 (gildeuretinol acetate) in Stargardt Disease (Clinical trial group 3, also known as TEASE-3) study was an open-label, multicenter, case control study designed to evaluate the efficacy and safety of gildeuretinol acetate on the progression of Stargardt disease in asymptomatic individuals. The trial was conducted at multiple sites in the United States.
Patients received gildeuretinol acetate 14 mg capsules, to be taken orally once daily. Trial visits occurred every 6 months approximately following screening and treatment start visits.
Disease progression was monitored by best-corrected visual acuity (BCVA) reported in number of Early Treatment Diabetic Retinopathy Study (ETDRS) letters, fundus autofluorescence (FAF) imaging, loss of photoreceptors (as measured by the ellipsoid zone band loss) by optical coherence tomography (OCT) and retinal sensitivity by microperimetry.
Measurements from the left and right eye for each patient were averaged for each visit to produce a single statistical unit for both eyes. For segmented linear regressions, knot times were selected so that three visits were included in the first segment.

[2] = TEASE-1 safety, adverse events

Compound: [2H]C([2H])([2H])C(/C=C/C=C(C)/C=C/C1=C(C)CCCC1(C)C)=C\COC(C)=O [gildeuretinol acetate]
- progression of photoreceptor loss ([1]; first six months of treatment, average of two treated patients): approximately 0.18 mm^2/year
- photoreceptor loss trend ([1]; following years of treatment): trended toward an improvement
- photoreceptor loss, third patient ([1]; full treatment period): no photoreceptors were lost
- average area of photoreceptor loss ([1]; in vivo): 0.36±0.32 mm^2
- average area of photoreceptor loss as share of the foveal area ([1]; in vivo): 20%
- Patients experiencing event (%): Death ([2]; 14 mg (N = 15)): 1 (6.7)
- Patients experiencing event (%): Influenza ([2]; 14 mg (N = 15)): 0
- Patients experiencing event (%): Vulvovaginal candidiasis ([2]; 14 mg (N = 15)): 0
- Patients experiencing event (%): Wrist fracture ([2]; 14 mg (N = 15)): 0
- Patients experiencing event (%): Xanthelasma ([2]; 14 mg (N = 15)): 0
- Patients experiencing event (%): Death ([2]; 24 mg (N = 15)): 0
- Patients experiencing event (%): Influenza ([2]; 24 mg (N = 15)): 1 (6.7)
- Patients experiencing event (%): Vulvovaginal candidiasis ([2]; 24 mg (N = 15)): 1 (6.7)
- Patients experiencing event (%): Wrist fracture ([2]; 24 mg (N = 15)): 0
- Patients experiencing event (%): Xanthelasma ([2]; 24 mg (N = 15)): 1 (6.7)
- Patients experiencing event (%): Abdominal discomfort ([2]; Crossover (N = 10)): 1 (10.0)
- Patients experiencing event (%): Abdominal distension ([2]; Crossover (N = 10)): 0
- Patients experiencing event (%): Abdominal pain upper ([2]; Crossover (N = 10)): 0
- Patients experiencing event (%): Abnormal dreams ([2]; Crossover (N = 10)): 0
- Patients experiencing event (%): Alanine aminotransferase increased ([2]; Crossover (N = 10)): 1 (10.0)
- Patients experiencing event (%): Alopecia ([2]; Crossover (N = 10)): 0
- Patients experiencing event (%): Ankle fracture ([2]; Crossover (N = 10)): 0
- Patients experiencing event (%): Arthralgia ([2]; Crossover (N = 10)): 1 (10.0)
- Patients experiencing event (%): Arthritis ([2]; Crossover (N = 10)): 1 (10.0)
- Patients experiencing event (%): Aspartate aminotransferase increased ([2]; Crossover (N = 10)): 1 (10.0)
- Patients experiencing event (%): Back injury ([2]; Crossover (N = 10)): 0
- Patients experiencing event (%): Back pain ([2]; Crossover (N = 10)): 0
- Patients experiencing event (%): Blepharospasm ([2]; Crossover (N = 10)): 1 (10.0)
- Patients experiencing event (%): Blood cholesterol increased ([2]; Crossover (N = 10)): 0
- Patients experiencing event (%): Blood creatinine increased ([2]; Crossover (N = 10)): 0
- Patients experiencing event (%): Blood iron decreased ([2]; Crossover (N = 10)): 0
- Patients experiencing event (%): Blood pressure increased ([2]; Crossover (N = 10)): 0
- Patients experiencing event (%): Blood triglycerides increased ([2]; Crossover (N = 10)): 0
- Patients experiencing event (%): Bowel movement irregularity ([2]; Crossover (N = 10)): 0
- Patients experiencing event (%): Bronchitis ([2]; Crossover (N = 10)): 0
- Patients experiencing event (%): Cartilage injury ([2]; Crossover (N = 10)): 0
- Patients experiencing event (%): Conjunctival laceration ([2]; Crossover (N = 10)): 0
- Patients experiencing event (%): Conjunctivitis ([2]; Crossover (N = 10)): 0
- Patients experiencing event (%): Constipation ([2]; Crossover (N = 10)): 0
- Patients experiencing event (%): Cough ([2]; Crossover (N = 10)): 0
- Patients experiencing event (%): Death ([2]; Crossover (N = 10)): 0
- Patients experiencing event (%): Depression ([2]; Crossover (N = 10)): 0
- Patients experiencing event (%): Diarrhoea ([2]; Crossover (N = 10)): 1 (10.0)
- Patients experiencing event (%): Diplopia ([2]; Crossover (N = 10)): 0
- Patients experiencing event (%): Dry eye ([2]; Crossover (N = 10)): 0
- Patients experiencing event (%): Dry mouth ([2]; Crossover (N = 10)): 0
- Patients experiencing event (%): Dry skin ([2]; Crossover (N = 10)): 0
- Patients experiencing event (%): Ear discomfort ([2]; Crossover (N = 10)): 0
- Patients experiencing event (%): Ear pain ([2]; Crossover (N = 10)): 0
- Patients experiencing event (%): Eczema ([2]; Crossover (N = 10)): 1 (10.0)
- Patients experiencing event (%): Electrocardiogram abnormal ([2]; Crossover (N = 10)): 1 (10.0)
- Patients experiencing event (%): Erythema ([2]; Crossover (N = 10)): 0
- Patients experiencing event (%): Eye irritation ([2]; Crossover (N = 10)): 0
- Patients experiencing event (%): Eye pain ([2]; Crossover (N = 10)): 0
- Patients experiencing event (%): Eye pruritus ([2]; Crossover (N = 10)): 0
- Patients experiencing event (%): Face injury ([2]; Crossover (N = 10)): 0
- Patients experiencing event (%): Faeces soft ([2]; Crossover (N = 10)): 0
- Patients experiencing event (%): Fall ([2]; Crossover (N = 10)): 0
- Patients experiencing event (%): Gastroenteritis ([2]; Crossover (N = 10)): 1 (10.0)
- Patients experiencing event (%): Hair texture abnormal ([2]; Crossover (N = 10)): 0
- Patients experiencing event (%): Hand fracture ([2]; Crossover (N = 10)): 0
- Patients experiencing event (%): Headache ([2]; Crossover (N = 10)): 0
- Patients experiencing event (%): Hordeolum ([2]; Crossover (N = 10)): 0
- Patients experiencing event (%): Hypertension ([2]; Crossover (N = 10)): 0
- Patients experiencing event (%): Hypobarism ([2]; Crossover (N = 10)): 0
- Patients experiencing event (%): Hypothyroidism ([2]; Crossover (N = 10)): 0
- Patients experiencing event (%): Hysterectomy ([2]; Crossover (N = 10)): 0
- Patients experiencing event (%): Inflammation ([2]; Crossover (N = 10)): 0
- Patients experiencing event (%): Influenza ([2]; Crossover (N = 10)): 0
- Patients experiencing event (%): Insomnia ([2]; Crossover (N = 10)): 0
- Patients experiencing event (%): Intracranial pressure increased ([2]; Crossover (N = 10)): 0
- Patients experiencing event (%): Irritability ([2]; Crossover (N = 10)): 0
- Patients experiencing event (%): Jaw operation ([2]; Crossover (N = 10)): 0
- Patients experiencing event (%): Knee arthroplasty ([2]; Crossover (N = 10)): 0
- Patients experiencing event (%): Laryngitis ([2]; Crossover (N = 10)): 0
- Patients experiencing event (%): Lip swelling ([2]; Crossover (N = 10)): 0
- Patients experiencing event (%): Low density lipoprotein increased ([2]; Crossover (N = 10)): 0
- Patients experiencing event (%): Muscle spasms ([2]; Crossover (N = 10)): 0
- Patients experiencing event (%): Muscle strain ([2]; Crossover (N = 10)): 0
- Patients experiencing event (%): Musculoskeletal pain ([2]; Crossover (N = 10)): 0
- Patients experiencing event (%): Nasopharyngitis ([2]; Crossover (N = 10)): 1 (10.0)
- Patients experiencing event (%): Nausea ([2]; Crossover (N = 10)): 0
- Patients experiencing event (%): Neck pain ([2]; Crossover (N = 10)): 0
- Patients experiencing event (%): Nephrolithiasis ([2]; Crossover (N = 10)): 1 (10.0)
- Patients experiencing event (%): Nerve compression ([2]; Crossover (N = 10)): 0
- Patients experiencing event (%): Neuralgia ([2]; Crossover (N = 10)): 0
- Patients experiencing event (%): Obsessive-compulsive disorder ([2]; Crossover (N = 10)): 0
- Patients experiencing event (%): Oropharyngeal pain ([2]; Crossover (N = 10)): 1 (10.0)
- Patients experiencing event (%): Osteoporosis ([2]; Crossover (N = 10)): 0
- Patients experiencing event (%): Overall ([2]; Crossover (N = 10)): 8 (80)
- Patients experiencing event (%): Pain ([2]; Crossover (N = 10)): 0
- Patients experiencing event (%): Pain in extremity ([2]; Crossover (N = 10)): 0
- Patients experiencing event (%): Pain in jaw ([2]; Crossover (N = 10)): 0
- Patients experiencing event (%): Peripheral coldness ([2]; Crossover (N = 10)): 0
- Patients experiencing event (%): Pharyngitis streptococcal ([2]; Crossover (N = 10)): 0
- Patients experiencing event (%): Photophobia ([2]; Crossover (N = 10)): 0
- Patients experiencing event (%): Photopsia ([2]; Crossover (N = 10)): 0
- Patients experiencing event (%): Plantar fasciitis ([2]; Crossover (N = 10)): 0
- Patients experiencing event (%): Pleurisy ([2]; Crossover (N = 10)): 1 (10.0)
- Patients experiencing event (%): Pneumonia ([2]; Crossover (N = 10)): 1 (10.0)
- Patients experiencing event (%): Premenstrual syndrome ([2]; Crossover (N = 10)): 0
- Patients experiencing event (%): Punctate keratitis ([2]; Crossover (N = 10)): 0
- Patients experiencing event (%): Pyrexia ([2]; Crossover (N = 10)): 0
- Patients experiencing event (%): Radius fracture ([2]; Crossover (N = 10)): 0
- Patients experiencing event (%): Rash ([2]; Crossover (N = 10)): 1 (10.0)
- Patients experiencing event (%): Rotator cuff syndrome ([2]; Crossover (N = 10)): 0
- Patients experiencing event (%): Sialoadenitis ([2]; Crossover (N = 10)): 0
- Patients experiencing event (%): Sinus congestion ([2]; Crossover (N = 10)): 0
- Patients experiencing event (%): Sinusitis ([2]; Crossover (N = 10)): 0
- Patients experiencing event (%): Sjogren's syndrome ([2]; Crossover (N = 10)): 0
- Patients experiencing event (%): Subdural haematoma ([2]; Crossover (N = 10)): 0
- Patients experiencing event (%): Syncope ([2]; Crossover (N = 10)): 0
- Patients experiencing event (%): Tendonitis ([2]; Crossover (N = 10)): 0
- Patients experiencing event (%): Thoracic outlet syndrome ([2]; Crossover (N = 10)): 0
- Patients experiencing event (%): Tongue dry ([2]; Crossover (N = 10)): 0
- Patients experiencing event (%): Tooth abscess ([2]; Crossover (N = 10)): 0
- Patients experiencing event (%): Tooth extraction ([2]; Crossover (N = 10)): 0
- Patients experiencing event (%): Toothache ([2]; Crossover (N = 10)): 0
- Patients experiencing event (%): Vision blurred ([2]; Crossover (N = 10)): 1 (10.0)
- Patients experiencing event (%): Visual field defect ([2]; Crossover (N = 10)): 1 (10.0)
- Patients experiencing event (%): Visual impairment ([2]; Crossover (N = 10)): 0
- Patients experiencing event (%): Vitamin B12 deficiency ([2]; Crossover (N = 10)): 0
- Patients experiencing event (%): Vitamin D decreased ([2]; Crossover (N = 10)): 0
- Patients experiencing event (%): Vitreous floaters ([2]; Crossover (N = 10)): 1 (10.0)
- Patients experiencing event (%): Vulvovaginal candidiasis ([2]; Crossover (N = 10)): 0
- Patients experiencing event (%): Wrist fracture ([2]; Crossover (N = 10)): 0
- Patients experiencing event (%): Xanthelasma ([2]; Crossover (N = 10)): 0
- association between treatment groups and frequency of adverse events ([2]; in vivo): no association was observed
- changes by physical examination, electrocardiogram, vital signs, hematology, biochemistry and lipid panels ([2]; in vivo): no changes were attributed to gildeuretinol acetate
